Results taken from US20140343050A1, “PRODRUGS OF D-ISOGLUTAMYL-[D/L]-TRYPTOPHAN” (APTOEX TECHNOLOGIES, INC., priority 2011, published 2014).

Experiments:
human hepatocytes = assay: Biotransformation to Apo805 in human hepatocytes; details: for Half-life for bioconversion to Apo805 (h), Human hepatocytes: 100 μM prodrug, pooled cryopreserved human hepatocytes
Method: LiverPool® cryopreserved human hepatocytes (pooled from 10 male donors) was obtained from Celsis In Vitro Technologies. The hepatocytes were stored in liquid nitrogen until used. Just before the assay, the hepatocytes were quickly thawed at 37° C. and centrifuged at 100×g for 10 min. The media was removed and cells were re-suspended in PBS at a density of 4×10^6 cells/mL. […] After 10, 20, 60, 120 and 240 min of incubation, the reaction was quenched by adding an equal volume of 5% (w/v) TCA. The “time 0” sample was generated by adding TCA before the test compound. After brief vortexing and 10-min incubation on ice, samples were centrifuged (16,000×g, 10 min) and the supernatants were analyzed by HPLC with UV detection.
(§1) HPLC analysis was done using an Agilent 1100 series HPLC system consisting of a programmable multi-channel pump, auto-injector, vacuum degasser and HP detector controlled by Agilent HPLC218 Chem Station Rev.A.09.03 software for data acquisition and analysis. A gradient method was used for the determination of all pro-drugs and their hydrolysis products including Apo805 on an Agilent Eclipse XDB, C18 column (part #963967-902, 150×4.6 mm, 3.5 μm) with the following chromatographic conditions: • Temperature: Ambient • Mobile phase: A=Aqueous phase: 10 mM Tris-HCl, 2 mM EDTA, pH 7.4 B=Organic phase: Acetonitrile • Gradient method: Time: 0 min 5% B, 25 min 50% B, 35 min 80% B, 45 min 5% B, 50 min 5% B. • Mobile phase flow rate: 1.0 mL/min • Injection volume: 50 μL • Data acquisition time: 30 min • Detection wavelength: 280 nm; 4 nm bandwidth, ref. 360 nm, • 4 nm bandwidth The chromatograms at λ=280 nm were analyzed. Peak area (mAU*s) was used for quantitation of pro-drugs, intermediates and thymodepressin (Apo805).

[1] = Stability / bioconversion to Apo805 in human blood; details: 100 μM prodrug, pooled human blood, 37° C.
Description: as §1
Blood was collected from healthy volunteers, both male and female, in Becton Dickinson ACD Vacutainer™ containing ACD solution A (22.0 g/L trisodium citrate, 8.0 g/L citric acid, 24.5 g/L dextrose). […] After 10-min incubation on ice, samples were centrifuged (16,000×g, 10 min) and the supernatants were analyzed by HPLC.

[2] = Pharmacokinetic study in rats, oral bioavailability (plasma Apo805); assay type: in vivo; details: male Sprague-Dawley rats, oral 5 mg/kg, in words
Method: Groups of five male Sprague-Dawley rats weighing 250 to 300 g were utilized per dosing group. One day prior to dosing, venous and arterial catheters (made of 20 cm long polyurethane coiled tubing, and filled with 100 units/mL heparinized saline) were implanted into the jugular vein and carotid artery of each rat. Rats were fasted overnight prior to oral dosing and fed approximately 2 hours post-dosing. All dosing and blood sampling was performed on fully conscious rats. Tested compounds were administered either by oral gavage as solutions in water, or by intravenous injection (Apo805K1 only) as solution in 0.9% sodium chloride, final pH 7.0, at doses equivalent to 5 mg/kg (per Apo805 content). Blood (0.3 mL) was sampled from each animal from the carotid artery for up to 30 hours post-dosing, each sampling followed by an equivalent naive-blood replacement. […]
A Sciex API 365 LC/MS/MS […] equipped with Ionics EP10+ and HSID, was used, A chiral column (Supelco-Astec CHIROBIOTIC™ TAG), 100×2.1 mm, 5 μm was used at ambient temperature. […] Samples were analysed for the concentration of Apo805 (thymodepressin).
Non-compartmental analysis was performed using WinNonlin 52 software, on individual animal data. Bioavailability was calculated as a ratio of AUCINF—D after oral dosing of test compound to AUCINF—D after IV dosing of Apo805K1. […]

Compound: CCOC(=O)[C@@H](Cc1c[nH]c2ccccc12)NC(=O)CC[C@@H](N)C(=O)O [Apo835, H-D-Glu(D-Trp-OEt)-OH, reference compound]
- Half-life for bioconversion to Apo805 (h), Human hepatocytes (human hepatocytes): > 2.0 h
- percent conversion to Apo805 within indicated time, Human hepatocytes (human hepatocytes; in 2 h): 11%
- Half-life for bioconversion to Apo805 (h), Human blood [1]: >24 h

Compound: CC(C)(C)C(=O)OCOC(=O)[C@@H](Cc1c[nH]c2ccccc12)NC(=O)CC[C@@H](N)C(=O)O [Apo839, H-D-Glu(D-Trp-OCH2O—CO—C(CH3)3)—OH]
- oral bioavailability in rats [2]: show oral bioavailability

Compound: CC(OC(=O)OC1CCCCC1)OC(=O)[C@@H](Cc1c[nH]c2ccccc12)NC(=O)CC[C@@H](N)C(=O)O (stereo partly drawn) [Apo843, H-D-Glu(D-Trp-O—CH(CH3)—O—CO—O-cyclohexyl)-OH]
- oral bioavailability in rats [2]: show oral bioavailability

Compound: N[C@H](CCC(=O)N[C@@H](Cc1c[nH]c2ccccc12)C(=O)O)C(=O)OCCC(F)(F)F [Apo886]
- Half-life for bioconversion to Apo805 (h), Human hepatocytes (human hepatocytes): 4.6 h
- Half-life for bioconversion to Apo805 (h), Human blood [1]: 5.9 h

Compound: CN(C)C(=O)COC(=O)[C@@H](Cc1c[nH]c2ccccc12)NC(=O)CC[C@@H](N)C(=O)O [Apo893, H-D-Glu(D-Trp-O—CH2CO—N(CH3)2)—OH]
- biotransformation to thymodepressin (Apo805) in human hepatocytes (human hepatocytes; in words): not readily converted to thymodepressin
